Publication PMC7750480, “A hybrid approach reveals the allosteric regulation of GTP cyclohydrolase I” (Proceedings of the National Academy of Sciences of the …, 2020)
Residue numbers refer to the chain shown, from its start.

Key:
GCH1 F122A mutant = target: T1, GCH1 F122A mutant (Homo sapiens, UniProt P30793, F122A); assay: protein-detected NMR titration (1H,13C HMQC), F122A mutant; format: binding
T1 construct: The hGCH1 (42-250, N-terminal 6xHis Tag and TEV cleavage site); 6xHis (N); TEV cleavage site (N); made in house; host or cells: E. coli BL21(DE3)
T1 sequence (P30793 42-250 F122A): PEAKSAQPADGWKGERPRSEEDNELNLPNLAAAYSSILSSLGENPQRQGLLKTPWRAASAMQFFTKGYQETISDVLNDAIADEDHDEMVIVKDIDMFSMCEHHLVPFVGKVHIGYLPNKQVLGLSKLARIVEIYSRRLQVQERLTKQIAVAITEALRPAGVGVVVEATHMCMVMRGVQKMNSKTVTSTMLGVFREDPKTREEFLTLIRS
Experimental: (§1) Finally, the F122A mutant was generated and characterized to check whether the structurally observed, F122-dependent closure of the active site plays a key role in GCH1 function. […] The fitted dissociation constant KD of GCH1 for the nonhydrolyzable GTP analog 7-deaza-GTP was determined by protein-detected NMR titrations. […] Therefore, the missing enzyme activity of the F122 mutant cannot be explained by reduced affinity to the substrate and must have other underlying causes.
(§2) Perdeuterated protein with selectively labeled protonated and ^13C-labeled alanine, isoleucine, leucine, and valine methyl groups {Ala^β-[^13CH3]; Ile^δ1-[^13CH3]; Leu^δ,Val^γ-[^12CD3/^13CH3]} was expressed as described in the literature ([64]). […] All spectra were recorded on a Bruker Avance III 800 MHz NMR spectrometer equipped with a cryogenic triple-resonance probe at 298 K. Fifty micromolars perdeuterated GCH1 monomer with selectively labeled methyl groups was dissolved in 1× PBS in D2O. The ^1H,^13C-HMQC spectra of the protein were recorded with increasing concentration of the nonhydrolyzable GTP analog 7-deaza-GTP up to a final concentration of 3.5 mM. Spectra were processed with Bruker Topspin 3.5 and analyzed using CcpNmr ([65]) analysis version 2. Chemical shift perturbation (CSP) was calculated using Eq. 1 and the binding curve was fitted using Eq. 2. […]

GCH1 [1] = target: T2, GCH1 (Homo sapiens, UniProt P30793); assay: STD-NMR titration of 7-deaza-GTP to GCH1 (initial slopes of build-up curves); format: binding
T2 construct: The hGCH1 (42-250, N-terminal 6xHis Tag and TEV cleavage site); 6xHis (N); TEV cleavage site (N); made in house; host or cells: E. coli BL21(DE3)
T2 sequence (P30793 42-250): T1 sequence (P30793 42-250 F122A) with A81F
Description: To shed more light onto the mechanism of BH4-induced inhibition of GCH1, we used saturation transfer difference (STD) NMR spectroscopy to study binding of the substrate analog 7-deaza-GTP to GCH1. STD-NMR can be used to determine the KD of ligands (feasible in the range between 10^−2 and 10^−6 M) and allows the making of qualitative statements about the change of ligand binding kinetics ([28]–[31]). STD-NMR experiments were based on a titration of 7-deaza-GTP to GCH1 in the presence or absence of BH4. We measured a series of STD build-up curves (i.e., STD effects at a constant ligand concentration but increasing saturation times) at each 7-deaza-GTP concentration for the protons H7 and H1′ of the substrate analog. From the concentration dependence of the initial build-up slopes, the dissociation constant as well as the maximum STD amplification for the monitored proton signal can be derived (Fig. 6 A and B).
Fig. 6. KD determination using initial slopes from STD-NMR build-up curves. (A) For each ligand concentration, a set of measurements was recorded applying different saturation times (tsat). To obtain STD-AFmax values and the saturation rate constants ksat from STD-NMR build-up curves, experimental STD-AF values were fit to a rising exponential: STD-AF = STD-AFmax (1−exp (−ksat tsat)). From the fitting parameters, initial build-up slopes (tsat = 0) were calculated: STD-AF0 = STD-AFmax ksat. These STD-AF0 values were plotted against the ligand concentration, yielding a binding isotherm from which KD can be derived by fitting the Langmuir binding model: STD-AF0 = Amax/(1+(KD/c)). Amax is a scaling factor representing the maximum STD amplification. Two different 7-deaza-GTP protons (H1′ and H7) were monitored in these experiments. (C) Assignment of relevant protons on structural formula of 7-deaza-GTP. TEXT PRINTED IN THE PICTURE: (B) H1': KD: 52 (5mM BH4); Amax: 732 (5mM BH4); KD: 326 (no BH4); Amax: 177 (no BH4) | (B) H7: KD: 157 (5mM BH4); Amax: 729 (5mM BH4); KD: 977 (no BH4); Amax: 400 (no BH4) DOUBTS OF THE COPYIST ABOUT THIS PICTURE: Panel B: the row labels H1' and H7 are monitored protons of one ligand (printed in panel A as 7da-GTP / 7-Deaza-GTP), not separate compounds; they are used as labels as printed / Panel B: no unit is printed for KD or Amax in the table
All NMR experiments were performed at 25 °C on a Bruker HD 600-MHz spectrometer equipped with a cryogenic QCI probe head. Deuterium oxide (D2O) NMR buffer solution containing 40 mM of a NaH2PO4 and Na2HPO4 mixture with 150 mM sodium chloride (NaCl) was adjusted to a pD of 7.4 (corrected). Suppression of broad protein resonances was achieved by a T1ρ filter ([60]), formed by a 50-ms spin lock pulse. STD-NMR spectra were acquired with WATERGATE water suppression using W5 hard pulse trains ([61]). Difference spectrum ligand signal intensities were divided by corresponding off-resonance spectrum signal intensities, resulting in relative STD intensity values. Multiplication by ligand excess factor yielded STD amplification factor (STD-AF) values ([28]). For selective protein signal saturation, a cascade of Gaussian-shaped pulses was applied. Series of measurements with different total saturation times (tsat) covering a range between 1.2 and 7.2 s were recorded for extraction of initial slopes from STD-AF build-up plots. An additional relaxation delay varying from 2.8 s to 0.4 s was inserted before the saturation cascade to keep constant the total time per scan. On-resonance irradiation was set to 0.16 parts per million (ppm), and off-resonance irradiation was set to 66 ppm. Depending on the ligand concentration, 64 to 1,024 scans were acquired for the STD experiments (32 to 512 scans each for on- and off-resonance). Considering the STD-AF to be directly proportional to the fraction of bound receptor gives rise to a hyperbolic dose–response curve (specific one-site binding model) when STD-AF values are measured with different ligand concentrations ([31]). […]

GCH1 [2] = target: T2, GCH1; assay: protein-detected NMR titration (1H,13C HMQC), wild-type GCH1; format: binding
Experimental: as §1, §2

R235A-GCH1 = target: T3, R235A-GCH1 (Homo sapiens, UniProt P30793, R235A); assay: enzyme kinetics, H2NTP formation at 330 nm, R235A-GCH1; format: biochemical; conditions: in the absence and presence of GFRP; 0.1 mM BH4
T3 construct: The hGCH1 (42-250, N-terminal 6xHis Tag and TEV cleavage site); 6xHis (N); TEV cleavage site (N); made in house; host or cells: E. coli BL21(DE3)
T3 sequence (P30793 42-250 R235A): T1 sequence (P30793 42-250 F122A) with A81F, R194A
Experimental: (§3) In order to test the role of the key residues H126, D127, E128, R235, and R241 involved in allosteric inhibitor binding and conformational change, various point mutants were prepared and tested for their ability to be stimulated and inhibited by effector molecules in the presence or absence of GFRP. […] Enzyme activity was evaluated using an activity assay measuring the formation of the product H2NTP at 330 nm with increasing GTP concentrations.
(§4) GTPCH-I specific enzyme activity was determined by spectrometric measuring of the concentration of its direct product H2NTP. Synergy H1 (BioTek Instruments) and Gen5 2.01 software were used to evaluate H2NTP concentration and the maximal turnover rate (Vmax) within each measuring interval. H2NTP concentration was measured at 330 nm over a measuring period of 2 h using a measuring interval of 2 min to 4 min at 37 °C. Samples were prepared using 2 μM GTPCH-I, varying concentrations of GTP (1 μM to 2,000 µM) and in the absence or presence of 15 mM phenylalanine, 0.1 mM BH4, or 3 μM GFRP. The assay buffer used was 50 mM Tris/HCl, pH 7.5, 100 mM KCl. The specific enzyme activity (A) was calculated using the path length of 0.15 cm and the extinction coefficient […] = 6,300 M^−1⋅cm^−1 H2NTP. […] All enzymatic data were, at least, measured in triplicate (n = 3).

GCH1 WT = target: T4, GCH1 WT (Homo sapiens, UniProt P30793); assay: enzyme kinetics, H2NTP formation at 330 nm, WT GCH1; format: biochemical; conditions: colorimetric detection of H2NTP
T4 construct: The hGCH1 (42-250, N-terminal 6xHis Tag and TEV cleavage site); 6xHis (N); TEV cleavage site (N); made in house; host or cells: E. coli BL21(DE3)
T4 sequence (P30793 42-250): T1 sequence (P30793 42-250 F122A) with A81F
Experimental: as §3, §4

GCH1 [3] = target: T2, GCH1; assay: STD NMR assay with active site reporter ligand GTP; format: binding; conditions: in the presence of allosteric regulator
Description: (§5) Supplemental Figure 6: Detection of product formation and STD NMR assay. A) Enzyme activity assay for GCH1 based on colorimetric detection of H2NTP or 1H-NMR detection of formate. […]
(§6) inhibitor (e.g. BH4). B) STD NMR is capable to detect GTP binding (green). Addition of another active site binder (8-oxo […]
STD NMR enhancement of substrate GTP in the presence of allosteric regulator BH4 (red). This screening assay allows for the identification of allosteric binders. C) Correlation of activity in functional NMR assay and STD NMR enhancement of active site reporter ligand GTP.
(1 picture or pasted object on this page, not shown here)

R241A-GCH1 = target: T5, R241A-GCH1 (Homo sapiens, UniProt P30793, R241A); assay: enzyme kinetics, H2NTP formation at 330 nm, R241A-GCH1; format: biochemical; conditions: in the absence and presence of GFRP; 0.1 mM BH4
T5 construct: The hGCH1 (42-250, N-terminal 6xHis Tag and TEV cleavage site); 6xHis (N); TEV cleavage site (N); made in house; host or cells: E. coli BL21(DE3)
T5 sequence (P30793 42-250 R241A): T1 sequence (P30793 42-250 F122A) with A81F, R200A
Experimental: as §3, §4

GCH1 [4] = target: T2, GCH1; assay: functional assay with 1H-NMR detection of formate; format: biochemical
Experimental: For the functional assay, each NMR sample was prepared with 10 μM GCH1 and 170 μM or 600 μM test compound. The PBS NMR buffer additionally contained 300 μM GTP (Cayman Chemical cat. no. 16060). After a reaction time of 45 min (25 °C), a certain amount of substrate molecules (GTP) has been converted by GCH1 into 7,8-Dihydroneopterin (H2NPT) and the by-product formate (deprotonated formic acid). For product detection, a WATERGATE 1H-NMR spectrum was recorded (128 scans). We used the integrated NMR signal of the formate α-proton at 8.33 ppm as a relative enzyme activity readout. The formate integral of a negative control sample (dimethyl sulfoxide) has been set to 100%. An inhibitory active test compound decreases the GTP turnover and leads to a reduced relative formate signal integral (% inhibition). DAHP was used as a positive control.
as §5, §6
STD NMR enhancement of substrate GTP in the presence of allosteric regulator BH4 (red). This screening assay allows for the identification of allosteric binders. […]

inhibition of enzyme activity by BH4 (R235A-GCH1)	H2NTP production in presence of inhibitor (GCH1 WT)	effect on STD NMR signal of substrate GTP (allosteric regulator) (GCH1 [3])	inhibition of enzyme activity by BH4 (R241A-GCH1)	formate production in presence of inhibitor (GCH1 [4])	SMILES	Kd (GCH1 F122A mutant) [µM]	increase of maximum STD amplification (Amax), factor (GCH1 [1]; BH4-inhibited GCH1 compared to the uninhibited enzyme)	factor of tighter binding to the allosterically inhibited GCH1 (GCH1 [1]; BH4-inhibited vs uninhibited GCH1)	Kd (GCH1 [1]; KD (STD-NMR, initial slopes), proton H1', 5mM BH4) [µM]	Kd (GCH1 [1]; KD (STD-NMR, initial slopes), proton H1', no BH4) [µM]	Kd (GCH1 [1]; KD (STD-NMR, initial slopes), proton H7, 5mM BH4) [µM]	Kd (GCH1 [1]; KD (STD-NMR, initial slopes), proton H7, no BH4) [µM]	Kd (GCH1 [1]; KD, BH4-bound inhibited hGCH1) [µM]	Kd (GCH1 [1]; KD, free, active hGCH1) [µM]	Kd (GCH1 [2]) [µM]
–	–	–	–	–	Nc1nc2c(ccn2C2OC(COP(=O)(O)OP(=O)(O)OP(=O)(O)O)C(O)C2O)c(=O)[nH]1 (stereo not drawn) [7-deaza-GTP]	669	about 3	~6	52	326	157	977	~100	~600	798
cannot be inhibited	No H2NTP or formate is produced	enhancement	cannot be inhibited	No H2NTP or formate is produced	C[C@H](O)[C@H](O)[C@H]1CNc2nc(N)[nH]c(=O)c2N1 [BH4, tetrahydrobiopterin]	–	–	–	–	–	–	–	–	–	–
